Measured values published in publication PMC12523147, “Thyroid hormone receptor beta signaling is a targetable driver of prostate cancer growth” (Molecular Cancer, 2025).

Molecular target: T1, thyroid hormone receptor β (TRβ) (Homo sapiens, UniProt P10828)
T1 construct: gene THRB
Assay: biochemical

T1 sequence (P10828 whole entry): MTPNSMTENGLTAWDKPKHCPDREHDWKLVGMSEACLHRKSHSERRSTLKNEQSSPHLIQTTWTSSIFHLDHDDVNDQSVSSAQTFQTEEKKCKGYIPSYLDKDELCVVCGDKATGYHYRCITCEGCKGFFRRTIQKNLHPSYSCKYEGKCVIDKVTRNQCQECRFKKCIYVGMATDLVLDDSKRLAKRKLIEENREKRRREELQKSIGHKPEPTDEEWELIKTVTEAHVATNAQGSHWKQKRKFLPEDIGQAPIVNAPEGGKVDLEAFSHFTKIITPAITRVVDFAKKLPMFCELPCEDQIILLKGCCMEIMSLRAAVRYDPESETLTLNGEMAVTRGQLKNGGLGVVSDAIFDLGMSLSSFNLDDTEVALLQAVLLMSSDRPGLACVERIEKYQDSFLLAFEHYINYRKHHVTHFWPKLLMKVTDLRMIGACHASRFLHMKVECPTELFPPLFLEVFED

Ki: 1.31 nM
Compound: Cc1cc(OCC(=O)O)cc(C)c1Cc1cc(C#Cc2ccc([N+](=O)[O-])cc2)c(O)c(C(C)C)c1 [NH-3]
